Each structure is given as a SMILES string. Bounds are passed on as bounds.

T1 sequence (P49327 whole entry): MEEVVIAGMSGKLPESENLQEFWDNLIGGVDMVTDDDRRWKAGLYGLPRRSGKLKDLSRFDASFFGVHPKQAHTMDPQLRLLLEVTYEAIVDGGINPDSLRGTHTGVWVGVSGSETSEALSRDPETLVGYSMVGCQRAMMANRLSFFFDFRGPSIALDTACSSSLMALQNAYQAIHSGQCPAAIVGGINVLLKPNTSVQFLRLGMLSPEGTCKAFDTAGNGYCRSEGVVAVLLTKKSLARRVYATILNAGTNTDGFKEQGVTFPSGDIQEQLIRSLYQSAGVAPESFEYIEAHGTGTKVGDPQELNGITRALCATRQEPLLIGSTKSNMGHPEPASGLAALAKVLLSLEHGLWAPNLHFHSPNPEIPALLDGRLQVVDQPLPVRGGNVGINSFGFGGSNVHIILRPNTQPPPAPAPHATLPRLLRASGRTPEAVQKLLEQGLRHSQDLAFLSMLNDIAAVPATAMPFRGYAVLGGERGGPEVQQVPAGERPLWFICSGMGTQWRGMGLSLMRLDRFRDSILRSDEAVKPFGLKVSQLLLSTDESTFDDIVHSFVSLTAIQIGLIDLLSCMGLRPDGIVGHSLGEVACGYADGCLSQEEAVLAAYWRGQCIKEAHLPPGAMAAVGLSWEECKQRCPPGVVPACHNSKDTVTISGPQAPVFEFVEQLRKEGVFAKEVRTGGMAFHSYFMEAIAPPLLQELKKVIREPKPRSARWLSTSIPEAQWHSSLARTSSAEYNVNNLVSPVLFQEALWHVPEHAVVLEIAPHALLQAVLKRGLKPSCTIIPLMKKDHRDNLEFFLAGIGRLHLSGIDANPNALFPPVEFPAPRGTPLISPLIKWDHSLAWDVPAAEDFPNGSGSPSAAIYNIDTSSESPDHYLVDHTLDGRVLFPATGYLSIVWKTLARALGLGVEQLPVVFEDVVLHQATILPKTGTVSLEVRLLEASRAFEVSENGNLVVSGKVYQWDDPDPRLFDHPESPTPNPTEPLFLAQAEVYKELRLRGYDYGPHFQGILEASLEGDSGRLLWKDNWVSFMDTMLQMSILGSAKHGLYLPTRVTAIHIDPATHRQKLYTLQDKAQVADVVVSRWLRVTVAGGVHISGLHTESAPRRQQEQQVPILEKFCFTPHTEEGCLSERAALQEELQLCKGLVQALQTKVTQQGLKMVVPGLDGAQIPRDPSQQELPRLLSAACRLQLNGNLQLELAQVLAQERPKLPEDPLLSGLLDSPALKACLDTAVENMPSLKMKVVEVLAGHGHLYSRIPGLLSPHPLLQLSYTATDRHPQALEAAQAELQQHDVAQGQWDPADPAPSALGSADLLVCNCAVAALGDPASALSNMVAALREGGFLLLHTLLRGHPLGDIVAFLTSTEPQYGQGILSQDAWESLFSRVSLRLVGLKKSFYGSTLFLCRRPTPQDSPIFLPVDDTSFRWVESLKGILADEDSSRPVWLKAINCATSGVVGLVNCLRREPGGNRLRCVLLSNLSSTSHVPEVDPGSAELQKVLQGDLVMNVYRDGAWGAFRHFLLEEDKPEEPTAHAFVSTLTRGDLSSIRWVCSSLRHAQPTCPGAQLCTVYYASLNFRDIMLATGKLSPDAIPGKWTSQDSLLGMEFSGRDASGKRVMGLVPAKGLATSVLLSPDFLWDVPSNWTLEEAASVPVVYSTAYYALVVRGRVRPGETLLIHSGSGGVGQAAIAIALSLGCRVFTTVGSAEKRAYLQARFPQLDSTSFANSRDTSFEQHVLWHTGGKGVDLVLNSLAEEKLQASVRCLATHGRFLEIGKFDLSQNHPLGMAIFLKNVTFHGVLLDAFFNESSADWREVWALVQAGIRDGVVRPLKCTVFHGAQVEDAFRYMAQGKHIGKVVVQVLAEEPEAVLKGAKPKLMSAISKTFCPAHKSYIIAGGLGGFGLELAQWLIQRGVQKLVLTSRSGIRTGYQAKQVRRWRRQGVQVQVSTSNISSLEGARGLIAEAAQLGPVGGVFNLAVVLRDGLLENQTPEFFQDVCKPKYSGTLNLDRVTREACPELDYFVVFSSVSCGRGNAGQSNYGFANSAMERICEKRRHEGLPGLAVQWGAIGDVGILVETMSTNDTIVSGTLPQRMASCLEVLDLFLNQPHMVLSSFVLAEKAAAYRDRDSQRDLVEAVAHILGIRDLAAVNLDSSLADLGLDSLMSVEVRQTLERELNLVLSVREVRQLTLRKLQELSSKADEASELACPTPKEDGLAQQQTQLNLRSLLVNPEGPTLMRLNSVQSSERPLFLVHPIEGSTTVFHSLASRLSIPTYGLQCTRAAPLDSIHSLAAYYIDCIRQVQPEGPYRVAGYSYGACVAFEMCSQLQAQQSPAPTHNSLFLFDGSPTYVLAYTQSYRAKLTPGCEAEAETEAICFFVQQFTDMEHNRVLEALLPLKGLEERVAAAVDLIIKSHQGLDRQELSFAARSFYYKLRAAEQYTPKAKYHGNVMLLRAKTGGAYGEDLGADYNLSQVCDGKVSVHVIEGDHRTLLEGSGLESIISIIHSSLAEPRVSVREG

The assay addresses T1, human FASN (Homo sapiens, UniProt P49327).
T1 construct: was purified from SKBR3 cells using procedures modified from those in Jayakumar et al; endogenous in cells; host or cells: SKBR3 human breast cancer cells (ATCC); Endogenous enzyme purified by ammonium sulfate precipitation and a mono Q column
Put plainly: FASN Scintillation Proximity Flashplate Assay. Type of assay: biochemical. As to conditions: human FASN purified from SKBR3 cells; unstarred symbols. The procedure: Human FASN protein (SEQ ID NO. 1) was purified from SKBR3 cells using procedures modified from those in Jayakumar et al. PNAS 1995, 92:8695-8699. SKBR3 cells were obtained from ATCC and grown in DMEM high glucose medium supplemented with 10% FBS, 1 μg/mL bovine pancreas insulin, 100 U/mL penicillin and 100 µg/mL streptomycin. The confluent cells were trypsinized and washed three times with PBS buffer before frozen in liquid N2 and stored at −80° C. Frozen cells were thawed on ice and resuspended in lysis buffer (25 mM Tris-HCl, pH 7.0, 15 mM NaCl, 1 mM EDTA, and 1 mM DTT) with protease inhibitors. The cells were lysed by sonication, and the cell debris was removed by centrifugation at 20,000 rpm for 30 min. To the supernatant, neutralized saturated ammonium sulfate solution was added to a final concentration of 35%. The solution was left on ice for 1 hr, and the precipitated proteins were harvested by centrifugation at 20,000 rpm for 30 min. The proteins were redissolved in lysis buffer without NaCl and loaded on a mono Q column. Bound proteins were eluted with a linear gradient of NaCl in lysis buffer. Each fraction was analyzed by SDS-PAGE and FASN NADPH consumption assay. The fractions containing FASN were pooled and concentrated to 2-3 mg/mL. Glycerol was added to 20%, and the protein was frozen in liquid N2 and stored at −80° C.
Acetyl-coenzyme A, malonyl-coenzyme A, NADPH, bovine gamma globulin, and ORLISTAT were purchased from Sigma (St. Louis, Mo.). Tris(2-carboxyethyl) phosphine hydrochloride (TCEP) was purchased from Pierce Biotechnologies (Rockford, Ill.). [^3H]-acetyl-coenzyme A was purchased from Moravek Biochemicals (Brea, CA). FlashPlate™ PLUS phospholipid 96-well scintillant coated microplates were purchased from Perkin Elmer Life and Analytical Sciences (Shelton, CT). The method of the FASN Scintillation Proximity FlashPlate assay is similar to that described in Weiss and Glickman Assay Drug Dev Technol 2003, 1:161-6. In a 96-well polypropylene microplate, a dilution series (typical concentrations 60 nM-1.0 mM) of test compounds were prepared in DMSO followed by a 20-fold dilution into FASN assay buffer (50 mM potassium phosphate, pH 7.0, 1.0 mM EDTA, 0.01% NP-40), of which 5.0 μL each was transferred to a FlashPlate® PLUS 96-well plate and mixed with 35 μL FASN assay buffer plus 0.5 mg/mL bovine gamma globulin and 1 mM TCEP. FASN protein (10 μL, 10 nM) was added per well, and the microplate was incubated at 37° C. for 30 min. 10 μL of 20 mM NADPH was added, and the reaction was initiated by addition of […] substrate mixture to final concentrations of 1 nM FASN, 100 μM acetyl-coenzyme A, 6 μCi [^3H]-acetyl-coenzyme A, 300 μM malonyl-coenzyme A, 2 mM NADPH, 0.5 mg/mL bovine gamma globulin, and 1 mM TCEP in a volume of 100 μL per well. Assay plates were incubated for 2 hr at 37° C. and the reaction was stopped with 2 μL of 2.5 mM stock solution of ORLISTAT in DMSO to ˜50 μM. The plates were read in a Wallac 1450 Microbeta Plus liquid scintillation counter (Perkin Elmer, Waltham, Mass.), and counts per minute (CPM) were collected over 2 min. Each inhibitor well CPM was compared to the maximum FASN enzyme activity (Max) CPM and the background (Min) CPM, as measured by omission of FASN enzyme in the background well. % Inhibition values were calculated, and curves were fitted by a four-parameter logistic function to yield IC50 values:
Compounds were assayed as inhibitors of human FASN using the above-described FASN Scintillation Proximity Flashplate Assay (IC50; nM) or FASN NADPH Consumption Assay (*) (IC50; nM). The corresponding activity of the isolated compound is also provided along with the measured mass (ES^+).
For `COc1ccc(N(C(=O)n2nnn(-c3ccccc3C#N)c2=O)C2CCCCC2)cc1C(=O)O`, the IC50 is 100 to 200 nM.

Consider `CCN(C(=O)n1nnn(-c2ccccc2Oc2ccccc2)c1=O)c1ccc(C(=O)O)cc1`, for which the IC50 was < 15 nM.

On to `COc1ccc(N(C(=O)n2nnn(-c3ccccc3OC)c2=O)C(C)C)cc1C(=O)OCc1ccccc1`, for which the IC50 was < 15 nM.

For `CCN(C(=O)n1nnn(-c2c(F)cccc2F)c1=O)c1ccc(F)cc1F`, the IC50 was < 15 nM.

`CCN(C(=O)n1nnn(-c2c(F)cccc2F)c1=O)c1cc(C(=O)O)ccc1OC(C)C`: the IC50 lay in the range of 15 to 100 nM.

For `COc1ccc(N(C(=O)n2nnn(-c3c(F)cccc3F)c2=O)C(C)C)cc1C(=O)OCc1ccccc1`, the IC50 was < 15 nM.

On to `CCNC(=O)Nc1ccc(N(CC)C(=O)n2nnn(-c3c(F)cccc3F)c2=O)c(F)c1`, for which the IC50 is < 15 nM.

Regarding `CCN(C(=O)n1nnn(-c2c(F)cccc2F)c1=O)c1ccc(N)cc1F`, the IC50 was < 15 nM.

With `CCN(C(=O)n1nnn(-c2c(F)cccc2F)c1=O)c1ccc(NC(C)=O)cc1F`, the IC50 was < 15 nM.

On to `O=C(O)COc1ccc(N(C(=O)n2nnn(-c3c(F)cccc3F)c2=O)C2CCCCC2)cc1`, for which the IC50 is < 15 nM.

For `O=C(O)[C@@H]1CCCN1c1ccc(N(C(=O)n2nnn(-c3c(F)cccc3F)c2=O)C2CCCCC2)cc1`, the IC50 was < 15 nM.

For the molecule `CCN(C(=O)n1nnn(-c2c(F)cccc2F)c1=O)c1cc(C(=O)O)ccc1OCCc1ccccc1`, the IC50 is < 15 nM.

`CCN(C(=O)n1nnn(-c2c(F)cccc2F)c1=O)c1c(F)cccc1F`: the IC50 is < 15 nM.

As to `CCCCOc1ccc(C(=O)O)cc1N(CC)C(=O)n1nnn(-c2c(F)cccc2F)c1=O`, the IC50 is < 15 nM.

With `CCN(C(=O)n1nnn(-c2c(F)cccc2F)c1=O)c1ccccc1F`, the IC50 was < 15 nM.

Take `CCN(C(=O)n1nnn(-c2c(F)cccc2F)c1=O)c1ccc(NS(C)(=O)=O)cc1F`: the IC50 was < 15 nM.

In the case of `COc1ccc(C(=O)OCc2ccccc2)cc1N(CCCc1ccccc1)C(=O)n1nnn(-c2c(F)cccc2F)c1=O`, the IC50 was < 15 nM.

`CCN(C(=O)n1nnn(-c2c(F)cccc2F)c1=O)c1ccc(C(=O)O)cc1Oc1ccccc1`: the 50% inhibitory concentration (IC50) is < 15 nM.

Consider `CCN(C(=O)n1nnn(-c2c(F)cccc2F)c1=O)c1ccccc1Oc1ccccc1`, for which the IC50 is < 15 nM.

Turning to `CCN(C(=O)n1nnn(-c2c(F)cccc2F)c1=O)c1ccc(OC)c(C(=O)O)c1`, the IC50 fell in the range of 15 to 100 nM.

For `CCN(C(=O)n1nnn(-c2c(F)cccc2F)c1=O)c1ccc(C(=O)O)c(OC)c1`, the IC50 is < 15 nM.

Turning to `O=C(N(c1ccccc1)C1CCCCC1)n1nnn(-c2c(F)cccc2F)c1=O`, the IC50 was < 15 nM.

With `CCNC(=O)N1CCN(c2ccc(N(C(=O)n3nnn(-c4c(F)cccc4F)c3=O)C3CCCCC3)cc2C(=O)O)CC1`, the IC50 was < 15 nM.

Take `CCOC(=O)N1CCN(c2ccc(N(C(=O)n3nnn(-c4c(F)cccc4F)c3=O)C3CCCCC3)cc2C(=O)O)CC1`: the IC50 was < 15 nM.

In the case of `CCOC(=O)c1cc(C)n(-c2ccc(N(C(=O)n3nnn(-c4c(F)cccc4F)c3=O)C3CCCCC3)cc2C(=O)O)n1`, the IC50 was < 15 nM.

For `CCOC(=O)c1cc(C)n(-c2ccc(N(C(=O)n3nnn(-c4c(F)cccc4F)c3=O)C3CCCCC3)cc2C(=O)OCc2ccccc2)n1`, the IC50 is < 15 nM.

Regarding `O=C(O)c1cc(N(C(=O)n2nnn(-c3c(F)cccc3F)c2=O)C2CCCCC2)ccc1OC(=O)N1CCOCC1`, the IC50 is < 15 nM.

In the case of `CS(=O)(=O)N1CCN(c2ccc(N(C(=O)n3nnn(-c4c(F)cccc4F)c3=O)C3CCCCC3)cc2C(=O)O)CC1`, the IC50 was < 15 nM.

Regarding `COc1ccc(N(C(=O)n2nnn(-c3c(F)cccc3F)c2=O)C2CCCCC2)cc1C(=O)NC(C)(C)C(=O)O`, the IC50 was < 15 nM.

Take `CNC(=O)c1cc(N(C(=O)n2nnn(-c3c(F)cccc3F)c2=O)C2CCCCC2)ccc1OC`: the IC50 is < 15 nM.

Turning to `CC(=O)N1CCN(c2ccc(N(C(=O)n3nnn(-c4c(F)cccc4F)c3=O)C3CCCCC3)cc2C(=O)O)CC1`, the IC50 is < 15 nM.

With `Cc1ccc(C)n1-c1ccc(N(C(=O)n2nnn(-c3c(F)cccc3F)c2=O)C2CCCCC2)cc1C(=O)O`, the IC50 was < 15 nM.

Turning to `CCN1CCN(c2ccc(N(C(=O)n3nnn(-c4c(F)cccc4F)c3=O)C3CCCCC3)cc2C(=O)O)CC1`, the IC50 fell in the range of 15 to 100 nM.

In the case of `COC(=O)c1cc(N(C(=O)n2nnn(-c3c(F)cccc3F)c2=O)C2CCCCC2)ccc1OC`, the IC50 is < 15 nM.

For the molecule `COCCOc1ccc(N(C(=O)n2nnn(-c3c(F)cccc3F)c2=O)C2CCCCC2)cc1C(=O)O`, the IC50 was < 15 nM.

Regarding `COc1ccc(N(C(=O)n2nnn(-c3c(F)cccc3F)c2=O)C2CCCCC2)cc1C(=O)N(C)C`, the IC50 is < 15 nM.

`COc1ccc(N(C(=O)n2nnn(-c3c(F)cccc3F)c2=O)C2CCCCC2)cc1C(N)=O`: the IC50 is < 15 nM.

For the molecule `CC(C)(C)OC(=O)N1CCN(c2ccc(N(C(=O)n3nnn(-c4c(F)cccc4F)c3=O)C3CCCCC3)cc2C(=O)O)CC1`, the IC50 was < 15 nM.

With `CC(C)(C)OC(=O)N1CCN(c2ccc(N(C(=O)n3nnn(-c4c(F)cccc4F)c3=O)C3CCCCC3)cc2C(=O)OCc2ccccc2)CC1`, the IC50 was < 15 nM.

As for `O=C(O)c1cc(N(C(=O)n2nnn(-c3c(F)cccc3F)c2=O)C2CCCCC2)ccc1N1CCOCC1`, the IC50 lay within 15 to 100 nM.

Consider `COc1cc(OC)c(N(C(=O)n2nnn(-c3c(F)cccc3F)c2=O)C2CCCCC2)cc1C(=O)O`, for which the IC50 was < 15 nM.

Regarding `CN(C)c1ccc(N(C(=O)n2nnn(-c3c(F)cccc3F)c2=O)C2CCCCC2)cc1C(=O)O`, the IC50 was < 15 nM.

Take `O=C(O)c1cc(N(C(=O)n2nnn(-c3c(F)cccc3F)c2=O)C2CCCCC2)cc2c1OCC2`: the IC50 was < 15 nM.

Take `O=C(OCc1ccccc1)c1cc(N(C(=O)n2nnn(-c3c(F)cccc3F)c2=O)C2CCCCC2)ccc1NCc1ccccc1`: the IC50 was < 15 nM.

With `COc1ccc(N(C(=O)n2nnn(-c3c(F)cccc3F)c2=O)C2CCCCC2)c(OC)c1C(=O)O`, the IC50 is 15 to 100 nM.

Regarding `COCCOCOc1ccc(N(C(=O)n2nnn(-c3c(F)cccc3F)c2=O)C2CCCCC2)cc1C(=O)O`, the IC50 is < 15 nM.

As to `COc1ccc(N(C(=O)n2nnn(-c3c(F)cccc3F)c2=O)C2CCCCC2)c(OC)c1C(=O)OCc1ccccc1`, the IC50 was < 15 nM.

On to `COCCOCOc1ccc(N(C(=O)n2nnn(-c3c(F)cccc3F)c2=O)C2CCCCC2)cc1C(=O)OCc1ccccc1`, for which the IC50 was < 15 nM.

Take `Nc1ccc(N(C(=O)n2nnn(-c3c(F)cccc3F)c2=O)C2CCCCC2)cc1C(=O)O`: the IC50 was < 15 nM.

For `CC(C)(C)OC(=O)Nc1ccc(N(C(=O)n2nnn(-c3c(F)cccc3F)c2=O)C2CCCCC2)cc1C(=O)O`, the IC50 was < 15 nM.

`COc1ccc(C(=O)O)cc1N(C(=O)n1nnn(-c2c(F)cccc2F)c1=O)C(C)C`: the IC50 was < 15 nM.

In the case of `CC(C)N(C(=O)n1nnn(-c2c(F)cccc2F)c1=O)c1ccc(NS(C)(=O)=O)c(C(=O)O)c1`, the IC50 is < 15 nM.

In the case of `COc1ccc(C(=O)O)cc1N(C(=O)n1nnn(-c2c(F)cccc2F)c1=O)C1CCCCC1`, the IC50 was < 15 nM.

On to `CC(C)N(C(=O)n1nnn(-c2c(F)cccc2F)c1=O)c1ccc(N(S(C)(=O)=O)S(C)(=O)=O)c(C(=O)O)c1`, for which the IC50 was < 15 nM.

Take `COc1ccc(N(C(=O)n2nnn(-c3c(F)cccc3F)c2=O)C2CCCCC2)cc1C(=O)O`: the IC50 was < 15 nM.

Consider `CC(C)N(C(=O)n1nnn(-c2c(F)cccc2F)c1=O)c1ccc(N(S(C)(=O)=O)S(C)(=O)=O)c(C(=O)OCc2ccccc2)c1`, for which the IC50 was < 15 nM.

These data come from patent US9346769B2, “Tetrazolones as inhibitors of fatty acid synthase” (Infinity Pharmaceuticals, Inc., priority 2010, dated 2016).
